According to patent publication US20240108740A1, “THERAPEUTIC COMPOSITIONS INCLUDING SPN10 AND USES THEREOF” (Stealth BioTherapeutics Inc., priority 2022, published 2024):
Residues, ends and D or L forms follow the SMILES beside them.

Tests used:
[1] = tested on: Isolated guinea pig hearts; assay: Example 15: organ preservation in cardioplegic solution; conditions: added to cardioplegic solution; 90 minutes ischemia, 60 minutes reperfusion
Description: Isolated guinea pig hearts will be perfused in a retrograde fashion with an oxygenated Krebs-Henseleit solution at 34° C. After 30 minutes of stabilization, the hearts will be perfused with a cardioplegic solution (CPS; St. Thomas) alone or in the presence of peptide conjugates (100 nM); aromatic-cationic peptides (an equivalent molar dose of aromatic-cationic peptide based on the concentration of the aromatic-cationic peptide administered in the peptide conjugate treatment group); SPN10(s) (an equivalent molar dose of SPN10 based on the concentration of SPN10 administered in the peptide conjugate treatment group); or SPN10(s) in combination with aromatic-cationic peptides (e.g., an equivalent molar dose of SPN10 based on the concentration of SPN10 administered in the peptide conjugate treatment group and an equivalent molar dose of aromatic-cationic peptide based on the concentration of aromatic-cationic peptide administered in the peptide conjugate treatment group) for 3 minutes. Global ischemia will then be induced by complete interruption of coronary flow and maintained for 90 minutes. Reperfusion will be performed for 60 minutes with oxygenated Krebs-Henseleit solution. Contractile force, heart rate, and coronary flow will be monitored continuously throughout the procedure.

animal models of ALF = assay: Example 44: animal models of acute liver failure (ALF); conditions: in vivo
Text: Suitable animal models of ALF utilize surgical procedures, toxic liver injury, or a combination thereof. See Belanger & Butterworth, Metabolic Brain Disease, 20:409-423 (2005). Peptide conjugates, aromatic-cationic peptides, SPN10(s) with or without aromatic-cationic peptides or control vehicle will be administered prior to or simultaneously with a toxic or surgical insult. Hepatic function will be assessed by measuring serum hepatic enzymes (transaminases, alkaline phosphatase), serum bilirubin, serum ammonia, serum glucose, serum lactate, or serum creatinine. Efficacy of SPN10(s) (with or without aromatic-cationic peptides) or conjugates in preventing ALF will be indicated by a reduction in the occurrence or severity of the ALF as indicated by the above markers, as compared to control subjects.

hind limb casted mice = assay: Hind limb immobilization (casting) induced skeletal muscle atrophy; assay type: in vivo, mouse
Description: 2. […] Casted mice will receive an i.p. injection of saline vehicle (0.3 mL), peptide conjugate, aromatic-cationic peptide, SPN10, or SPN10 with aromatic-cationic peptides. A control group of untreated mice will be also used in this experiment.
Subjects will receive s.c. injections of saline vehicle (0.3 mL) or the peptide conjugate, aromatic-cationic peptide or SPN10 (alone or in combination with aromatic-cationic peptides) (1.5 mg/kg for the peptide conjugate and equivalent molar doses of aromatic-cationic peptide and/or SPN10 based on concentration of the aromatic-cationic peptide or SPN10 administered in the peptide conjugate group) administered once daily during the immobilization period.
Immobilization. Mice will be anesthetized with gaseous isoflurane (3% induction, 0.5-2.5%) maintenance). Anesthetized animals will be cast-immobilized bilaterally with the ankle joint in the plantar-flexed position to induce maximal atrophy of the soleus and plantaris muscle. Both hind limbs and the caudal fourth of the body will be encompassed by a plaster cast. A thin layer of padding will be placed underneath the cast in order to prevent abrasions. In addition, to prevent the animals from chewing on the cast, one strip of fiberglass material will be applied over the plaster. The mice will be monitored on a daily basis for chewed plaster, abrasions, venous occlusion, and problems with ambulation.
Preparation of permeabilized muscle fibers. Permeabilized muscle fibers will be prepared as previously described. Korshunov, et al., FEBS Lett 416:15-18, 1997; Tonkonogi, et al., Pfliigers Arch 446:261-269, 2003. Briefly, the muscle will be trimmed of connective tissue and cut down to fiber bundles (4-8 mg wet wt). Under a microscope and using a pair of extra-sharp forceps, the muscle fibers will be gently separated in ice-cold buffer X containing 60 mM K-MES, 35 mM KCl, 7.23 mM K2EGTA, 2.77 mM CaK2EGTA, 20 mM imidazole, 0.5 mM DTT, 20 mM taurine, 5.7 mM ATP, 15 mM PCr, and 6.56 mM MgCl2·6 H2O (pH 7.1, 295 mosmol/kg H2O) to maximize surface area of the fiber bundle. To permeabilize the myofibers, each fiber bundle will be incubated in ice-cold buffer X containing 50 μg/mL saponin on a rotator for 30 minutes at 4° C. The permeabilized bundles will be washed in ice-cold buffer Z, containing 110 mM K-MES, 35 mM KCl, 1 mM EGTA, 5 mM K2HPO4, and 3 mM MgCl2, 0.005 mM glutamate, and 0.02 mM malate and 0.5 mg/mL BSA, pH 7.1.
Mitochondrial respiration in permeabilized fibers. Respiration will be measured polarographically in a respiration chamber maintained at 37° C. (Hansatech Instruments, United Kingdom). After the respiration chamber will be calibrated, permeabilized fiber bundles will be incubated with 1 mL of respiration buffer Z containing 20 mM creatine to saturate creatine kinase (Saks, et al., Mol. Cell Biochem. 184:81-100, 1998; Walsh, et al., J. Physiol. 537:971-978,2001). Flux through complex I will be measured using 5 mM pyruvate and 2 mM malate. The maximal respiration (state 3), defined as the rate of respiration in the presence of ADP, will be initiated by adding 0.25 mM ADP to the respiration chamber. Basal respiration (state 4) will be determined in the presence of 10 µg/mL oligomycin to inhibit ATP synthesis. The respiratory control ratio (RCR) will be calculated by dividing state 3 by state 4 respiration.
Mitochondrial ROS production. Mitochondrial ROS production will be determined using Amplex™ Red (Molecular Probes, Eugene, OR, U.S.A.). The assay will be performed at 37° C. in 96-well plates using succinate as the substrate. Superoxide dismutase (SOD) will be added at 40 units/mL to convert all superoxide into H2O2. Resorufin formation (Amplex™ Red oxidation by H2O2) will be monitored at an excitation wavelength of 545 nm and an emission wavelength of 590 nm using a multi-well plate reader fluorometer (SpectraMax, Molecular Devices, Sunnyvale, CA, U.S.A.). […]

N=C(N)NCCC[C@H](NC(=O)[C@@H](N)Cc1c[nH]c2ccccc12)C(=O)N[C@@H](Cc1c[nH]c2ccccc12)C(=O)N[C@@H](CCCCN)C(N)=O [SPN10, H-L-Trp-L-Arg-L-Trp-L-Lys-NH2] (H-WRWK-NH2)
contractile function after prolonged ischemia [1]: significantly enhance contractile function
reduced liver function after toxic or surgical liver insult (animal models of ALF): attenuate or prevent these effects
oxidative damage in soleus muscle, lipid peroxidation via 4-hydroxynonenal (4-HNE) (hind limb casted mice; casting): overcome
protease activity in the soleus muscle (hind limb casted mice; casting): attenuated or prevented
increase in H2O2 production by mitochondria isolated from soleus muscle (hind limb casted mice; casting for 7 days): prevented
decrease in soleus muscle weight and mitochondrial state 3 respiration (hind limb casted mice; hind limb casting for 7 days): reversed
calpain-1, caspase-3 and caspase-12 proteolytic degradation of muscle (hind limb casted mice; mouse, in vivo): prevented
oxidative damage and associated muscle weakness induced by hind limb immobilization (hind limb casted mice; mouse, in vivo): prevent
